The values that follow come from patent publication US7786095B2, “Amphiphilic macrocyclic derivatives and their analogues” (University College Dublin, priority 2000, dated 2010).

“And” between values parts separate entries of the source, which are not always exact repeats. Identical values can stand only once.

What all share (type): physicochemical
Data set [1] in a line: Carboxyfluorescein entrapment in vesicles: fluorescence increase on Triton X-100 solubilisation. To be noted: 1000-fold dilution, 0.1% w/w Triton X-100, two independent preparations. The procedure:
(§1) Vesicles of heptakis(6-dodecylthio-2-oligoethylenoxy)-β-cyclodextrin and […] were prepared by sonication in a buffered solution of carboxyfluorescein (CF).
(i) Small aliquots of the solutions of the cyclodextrin vesicles (5-20 mM) were diluted 1000-fold, resulting in immediate dilution of the non-entrapped CF with concomitant intense CF fluorescence, which was measured. The fluorescence of entrapped CF is negligible due to self-quenching. Next, the vesicles in the diluted solution were solubilised by the addition of 0.1% w/w of the detergent Triton X-100, leading to release and dilution of entrapped CF, with concomitant increase of CF fluorescence, which was measured. In this concentration range (ca. […]). The fluorescence intensity of CF correlates linearly with its concentration, and the incremental change of fluorescence upon addition of Triton X-100 is a direct measure of the percentage of entrapped volume of the vesicles relative to the total volume of the solution. The entrapped volume amounted to 7.7+/−1.9% and 11.4+/−2.7% for two independent preparations of HE-SC16; and to 5.0+/−2.4% and 7.2+/−5.3% for two independent preparations of HE-SC12.

Data set [2] is described as follows: Transmission electron microscopy of cyclodextrin vesicles (uranyl acetate negative staining). To be noted: prolonged sonication (9 hours), monodisperse solution. The procedure:
(§2) The amphiphilic cyclodextrins are dispersed in water by sonication of a thin film (cast by slow rotary evaporation of a solution of the cyclodextrins in chloroform) in a sonication bath. HE-SC12 is sonicated for 2 hours at room temperature and HE-SC16 is sonicated for 2 hours at 50° C. Dynamic light scattering indicates the presence of vesicles with an average diameter of 170 nm. Vesicles of cyclodextrins of 50-300 nm diameter are also observed by transmission electron microscopy using uranyl acetate as a negative staining agent (FIG. 1). Upon prolonged sonication (9 hours) of a solution of HE-SC12, a monodisperse solution of spherical vesicles with an average diameter of 60 nm is obtained (FIG. 2). Thus, the particle size can be directed by sonication time, in order to obtain a size suitable for specific molecular inclusion or specific therapeutic use.

Data set [3] in a line: Dynamic light scattering of cyclodextrin vesicles dispersed in water by sonication. To be noted: sonicated 2 hours (HE-SC12 room temperature, HE-SC16 50° C.). The procedure: as §2
Data set [4] can be described thus: Spontaneous release of carboxyfluorescein from gel-filtered vesicles over time. To be noted: room temperature, after 3 days. The procedure:
as §1
(ii) CF entrapped in the vesicles was separated from free (non-entrapped) CF by gel filtration using Sephadex G25. […] The peak of entrapped CF coincided with the elution of vesicles (FIG. 4). This confirms the existence of an aqueous inner compartment within the vesicles. Furthermore, as anticipated, the amount of entrapped CF in cyclodextrin vesicles correlated with the cyclodextrin concentration.
(iii) The spontaneous release of CF from vesicles of HE-SC16 (separated from free CF by gel filtration) was measured over time. At room temperature, the leakage of CF was limited, and the vesicles retained more than 75% of CF after 3 days (FIG. 5).

Data set [5] is described as follows: Differential scanning calorimetry of a 10% (w/w) dispersion in water. The procedure: Heptakis(6-hexadecylthio-2-oligoethylenoxy)-β-cyclodextrin was analysed using differential scanning calorimetry. […] The transition occurred around 48-49° C. and the enthalpy of transition amounted to 59 kJ/mol cyclodextrin. This typical Lβ-L[…] transition was confirmed in a measurement of the fluorescence polarisation of diphenylhexatriene in the presence of a vesicle solution by a standard method (R. R. C. New, Liposomes: a practical approach, Oxford University Press, 1990). Thus, vesicles of the amphiphilic cyclodextrins undergo thermotropic phase transitions which depend on molecular structure, and which can direct important parameters such as vesicle stability and bilayer permeability.

Turning to “heptakis(6-dodecylthio-2-oligoethylenoxy)-β-cyclodextrin [HE-SC12]”, the “entrapped volume of the vesicles relative to the total volume of the solution” value in data set [1] is 5.0+/−2.4% and 7.2+/−5.3%. The “average diameter of spherical vesicles after prolonged sonication” value in data set [2] is given as 60 nm. Further, the “average diameter of vesicles (dynamic light scattering)” value in data set [3] was 170 nm.

As to “heptakis(6-hexadecylthio-2-oligoethylenoxy)-β-cyclodextrin [HE-SC16]”, the “entrapped volume of the vesicles relative to the total volume of the solution” value in data set [1] was 7.7+/−1.9% and 11.4+/−2.7%. In addition, in data set [4], the “CF retained by vesicles” value is reported as “more than 75%”. The “average diameter of vesicles (dynamic light scattering)” value in data set [3] worked out at 170 nm. In data set [5], the “endothermic phase transition temperature (DSC heating scan)” value was 48-49 °C and the enthalpy of transition was 59 kJ/mol cyclodextrin.
